Tests used:
[1] = tested on: immortalized human microvascular endothelial cells (HMEC-1); experiment: Cell compatibility / proliferation (WST-1); type: cell-based; details: HMEC-1 compared with the other cell types
Text: In order to study cell compatibility, especially the effect of proliferation, the H2S releasing hyaluronic acid derivative according to FIG. 1A (s. above,) was investigated in comparison with unmodified HA (sodium salt of hyaluronic acid, “NA HA”) and an […] thiolated hyaluronic acid (“Thiomer CAPPY”). As further control, the well established commercially available H2S donor N-(benzoylthio)benzamide (Donor 5a is NSHD1, a small molecule with a thiol activation mechanism) was included in the experiments.
Three types of skin cells were used as models: primary human dermal fibroblasts (dFb), the immortalized line of human microvascular endothelial cells (HMEC-1) and the keratinocyte cell line HaCat. The cells were cultured in their appropriate medium. Synthetic medium Fibrolife with supplements and gentamycin was used for dFb, EBM+supplements was used for HMEC-1 and DMEM with 10% FCS and 1% CellShield was used for HaCat cells. Furthermore, 3 mM cysteine was added to all conditions investigated. […] Cells were seeded and grown at least overnight before medium was changed and the HA components were added according to the agreed protocol. […] Cell proliferation was measured indicated by using a WST-1-based colorimetric detection reagent according to manufacturers' protocol with fresh medium without addition of any HA-derivative. […]

[2] = Detection of released H2S by embrowning Pb-acetate paper after thiol addition; details: excess amounts of L-cysteine or cysteamine
Experimental: 850 mg polymer was obtained as a white, fibrous product with an estimated molecular weight of 270 kDa (based on the starting material) and a degree of modification with H2S releasing perthiol structures of […] polymer. This corresponds to a conversion rate of 98% of the thiol moieties of the polymer used as starting material. […] Emerging H2S was detected by embrowning Pb-acetate paper.
This finding was later confirmed by detecting H2S release after addition of excess amounts of L-cysteine or cysteamine to 4-amino-N-(benzoylthio)benzamide via embrowning Pb-acetate paper.

[3] = Olfactory test for H2S liberation; details: dissolved in acetone/phosphate buffer, excess L-cysteine

SMILES | sensitivity of endothelial cells to H2S [1] | H2S release detected by Pb-acetate paper [2] | H2S liberation, olfactory test [3]
O=C(NSC(=O)c1ccccc1)c1ccccc1 [Donor 5a, N-(benzoylthio)benzamide] | most sensitive | – | –
Nc1ccc(C(=O)NSC(=O)c2ccccc2)cc1 [4-amino-N-(benzoylthio)benzamide] | – | H2S release | indicated H2S liberation
